According to patent publication US20090181976A1, “Use of Compounds Binding to the Sigma Receptor for the Treatment of Metabolic Syndrome” (priority 2006, published 2009):

Tests used:
[1] = test system: obese (diet-induced obesity) wild type mice; assay: Triglyceride levels in blood of high fat diet-fed obese mice after 9 days of treatment; assay type: in vivo; details: male C57BL/6J mice on high fat diet, 50 mg/Kg s.c., once a day, blood on day 10, mean±standard deviation, p<0.05 vs vehicle control (91.75±32.88)
Method: Pharmacologic approach: Treatment of obese (diet-induced obesity) wild type mice with a sigma-1 receptor antagonist results in a significant reduction in the concentration of triglycerides in blood.
Wild type male mice from the C57BL/6J strain were used in these experiments. Mice of 8-10 weeks of age were fed for two months with high fat diet (49% fat content; Harlan Ibérica, TD97366). Treatment was administered subcutaneously, once a day, for 9 days. Treated animals received daily (for 9 days) a single dose of 50 mg/kg of BD-1063 (a sigma-1 receptor antagonist). Control animals received daily vehicle (saline). During the period of treatment, mice had free access to water and food (high fat diet). At the end of the treatment, on day 10, blood samples were obtained through intracardiac puncture and triglyceride levels were measured using the Cholestech LDX blood analyzer. Student t test was applied to determine statistical significance.
Values are means±standard deviation. Units are expressed as mg/100 mL.

sigma-1 (σ1) receptors = sigma-1 (σ1) receptors (Homo sapiens, UniProt Q99720); details: statement on literature knowledge; cited from earlier work
Chain of sigma-1 (σ1) receptors (Q99720 whole entry): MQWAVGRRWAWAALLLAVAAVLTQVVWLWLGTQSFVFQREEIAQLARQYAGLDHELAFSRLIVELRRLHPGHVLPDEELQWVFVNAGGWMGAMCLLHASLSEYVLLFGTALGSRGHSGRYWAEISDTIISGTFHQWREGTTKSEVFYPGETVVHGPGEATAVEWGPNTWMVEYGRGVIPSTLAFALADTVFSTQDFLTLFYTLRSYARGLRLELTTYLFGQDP

SMILES | Triglyceride Levels [1] [mg/100 mL] | affinity of sigma-1 receptors (sigma-1 (σ1) receptors)
CN1CCN(CCc2ccc(Cl)c(Cl)c2)CC1 [BD-1063] | 56.8±9.41 | –
CC(C)=CCN1CCC2(C)c3cc(O)ccc3CC1C2C (centres unmarked) [pentazocine] | – | very high affinity
